ChEMBL document CHEMBL5385858, “Identification of novel Pyrrolo[2,3-d]Pyrimidine-based KRAS G12C inhibitors with anticancer effects” (Eur J Med Chem, 2023)
Activity calls are given as the source filed them. No cut-off for these calls is given here.

Assays:
SOS1-KRAS = SOS1-KRAS (Homo sapiens, UniProt P01116, G12C); assay: Inhibition of KRAS G12C mutant/SOS1 (unknown origin) interaction incubated for 2 hrs in presence of GTP by HTRF assay; assay type: protein-complex assay
NCI-H1975 = assay: Antiproliferative activity against human NCI-H1975 cells harboring wild-type KRAS assessed as inhibition of cell proliferation incubated for 3 days by CCK8 assay; assay type: functional, cell-based; conditions: NCI-H1975, 72 h
MIA PaCa-2 = assay: Antiproliferative activity against human MIA PaCa-2 cells harboring KRAS G12C mutant assessed as inhibition of cell proliferation incubated for 3 days by CCK8 assay; assay type: functional, cell-based; conditions: MIA PaCa-2, 72 h
NCI-H358 [1] = assay: Induction of apoptosis in human NCI-H358 cells assessed as necrotic cells at 0.1 uM incubated for 24 hrs by Annexin V-FITC/PI staining based flow cytometry (reference value: 1.88 %); assay type: functional
NCI-H358 [2] = assay: Antitumor activity in human NCI-H358 cells xenografted in BALB/c-nu/nu mouse assessed as tumor growth inhibition at 10 mg/kg, po qd treated for 20 days relative to control; assay type: functional; conditions: time 20 day
NCI-H358 [3] = assay: Antiproliferative activity against human NCI-H358 cells harboring KRAS G12C/Y96D mutant assessed as inhibition of cell proliferation incubated for 48 hrs by CCK8 assay; assay type: functional, cell-based
A549 = assay: Antiproliferative activity against human A549 cells harboring KRAS G12S mutant assessed as inhibition of cell proliferation incubated for 3 days by CCK8 assay; assay type: functional, cell-based; conditions: A549, 72 h
NCI-H358 [4] = assay: Inhibition of cell migration in human NCI-H358 cells at 0.1 uM measured for 48 hrs by wound scratch assay; assay type: functional, cell-based
NCI-H358 [5] = assay: Induction of apoptosis in human NCI-H358 cells assessed as viable cells at 0.1 uM incubated for 24 hrs by Annexin V-FITC/PI staining based flow cytometry (reference value: 91.4 %); assay type: functional
NCI-H358 [6] = assay: Induction of apoptosis in human NCI-H358 cells assessed as late apoptotic cells at 0.1 uM incubated for 24 hrs by Annexin V-FITC/PI staining based flow cytometry (reference value: 1.32 %); assay type: functional
NCI-H358 [7] = assay: Inhibition of cell invasion in human NCI-H358 cells measured for 24 hrs by transwell assay; assay type: functional, cell-based
NCI-H358 [8] = assay: Induction of apoptosis in human NCI-H358 cells assessed as early apoptotic cells at 0.1 uM incubated for 24 hrs by Annexin V-FITC/PI staining based flow cytometry (reference value: 5.4 %); assay type: functional
NCI-H358 [9] = assay: Antiproliferative activity against human NCI-H358 cells harboring KRAS G12C mutant assessed as inhibition of cell proliferation incubated for 3 days by CCK8 assay; assay type: functional, cell-based; conditions: NCI-H358, 72 h

SOS1-KRAS, sequence (P01116 whole entry G12C, looked up): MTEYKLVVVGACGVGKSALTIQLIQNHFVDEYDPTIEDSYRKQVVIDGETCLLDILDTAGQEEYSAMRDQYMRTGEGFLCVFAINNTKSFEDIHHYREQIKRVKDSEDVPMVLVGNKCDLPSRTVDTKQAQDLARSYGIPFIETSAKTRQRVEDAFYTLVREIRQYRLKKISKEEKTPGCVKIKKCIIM

Row | SMILES | IC50 (SOS1-KRAS) [µM] | other results
1 | C=CC(=O)N1CCN(c2nc(OCCN(C)C)nc3c2cc(-c2cccc4cccc(C)c24)n3C)C[C@@H]1CC#N | > 10 | 
2 | C=CC(=O)N1CCN(c2nc(OC[C@@H]3CCCN3C)nc3c2cc(-c2cccc4cccc(OC)c24)n3C)C[C@@H]1CC#N | > 10 | 
3 | C=CC(=O)N1CCN(c2nc(OC[C@@H]3CCCN3C)nc3c2cc(-c2ccc4[nH]ncc4c2)n3C)C[C@@H]1CC#N | > 10 | 
4 | C=CC(=O)N1CCN(c2nc(OCC34CCCN3CCC4)nc3c2cc(-c2cccc4cccc(C)c24)n3C)C[C@@H]1CC#N | 0.34 | 
5 | C=CC(=O)N1CCN(c2nc(N3CCOCC3)nc3c2cc(-c2cccc4cccc(C)c24)n3C)C[C@@H]1CC#N | > 10 | 
6 | C=CC(=O)N1CCN(c2nc(OC[C@@H]3CCCN3C)nc3c2cc(-c2cccc4cccc(O)c24)n3C)C[C@@H]1CC#N | 3.24 | 
7 | C=CC(=O)N1CCN(c2nc(OC[C@@H]3CCCN3C)nc3c2cc(-c2c(C)ccc4c2cnn4C)n3C)C[C@@H]1CC#N | > 10 | 
8 | C=CC(=O)N1CCN(c2nc(OC[C@@H]3CCCN3C)nc3c2cc(-c2cc(O)cc4ccccc24)n3C)C[C@@H]1CC#N | 2.04 | 
9 | C=CC(=O)N1CCN(c2nc(N3CCN(C)CC3)nc3c2cc(-c2cccc4cccc(C)c24)n3C)C[C@@H]1CC#N | > 10 | 
10 | C=CC(=O)N1CCN(c2nc(OC[C@@H]3CCCN3C)nc3c2cc(-c2cccc4cccc(C)c24)n3C)C[C@@H]1CC#N | 1.54 | 
11 | C=C(F)C(=O)N1CCN(c2nc(OC[C@@H]3CCCN3C)nc3c2CCN(c2cccc4cccc(Cl)c24)C3)C[C@@H]1CC#N [ADAGRASIB] |  | IC50 (NCI-H1975): 6.37 µM; IC50 (MIA PaCa-2): 0.05 µM; Activity (NCI-H358 [1]): 1.04%; TGI (NCI-H358 [2]): 69.3%; inhibition (NCI-H358 [3]): inactive; IC50 (A549): 12.9 µM; Activity (NCI-H358 [4]): Active; Activity (NCI-H358 [5]): 79.9%; Activity (NCI-H358 [6]): 4.52%; Activity (NCI-H358 [7]): Dose-Dependent Effect; Activity (NCI-H358 [8]): 14.5%; IC50 (NCI-H358 [9]): 0.02 µM
12 | C=CC(=O)N1CCN(c2nc(OC[C@@H]3CCCN3C)nc3c2cc(-c2c(C)ccc4[nH]ncc24)n3C)C[C@@H]1CC#N | > 10 | 
13 | C=CC(=O)N1CCN(c2nc(OC[C@H]3CCCN3C)nc3c2cc(-c2cccc4cccc(C)c24)n3C)C[C@@H]1CC#N | 1.94 | 
14 | C=CC(=O)N1CCN(c2nc(NCCN(C)C)nc3c2cc(-c2cccc4cccc(C)c24)n3C)C[C@@H]1CC#N | > 10 | 
15 | C=CC(=O)N1CCN(c2nc(OCCN(C(C)C)C(C)C)nc3c2cc(-c2cccc4cccc(C)c24)n3C)C[C@@H]1CC#N | > 10 | 
16 | C=CC(=O)N1CCN(c2nc(OC[C@@H]3CCCN3C)nc3c2cc(-c2cc(OC)cc4ccccc24)n3C)C[C@@H]1CC#N | > 10 | 
